One may read the IC50 as the concentration at which inhibition is half-maximal. A lower IC50 goes with higher potency.

Some results are limits rather than exact numbers.

These results are taken from patent US11242334B2, “Heterocyclic compounds as kinase inhibitors, compositions comprising the heterocyclic compound, and methods of use thereof” (JS INNOPHARM (SHANGHAI) LTD, priority 2017, dated 2022).

One assay concerns Colo205 cell line. In words: Colo205 cell proliferation assay (MTT assay, WST-8 readout). In kind it is cell-based. The settings on record: Homo sapiens; IC50 values of growth inhibition in Colo 205 cells; 72 hours. The gist of the method: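 Colo205 cells were seeded at 5,000 cells/well in RPMI-1640 with 10% FBS and attached for 24 h at 37° C. They were then exposed for 72 h to compound at final 50 μM to 0.005 μM (0.5% DMSO). Viability was read as WST-8 absorbance at 450 nm after 2 h, and IC50 of growth inhibition was determined.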
For orientation: Tetrazolium dyes change colour on reduction, which living cells bring about.

The target in a further assay is T1, human ERK2 (Homo sapiens, UniProt P28482).
T1 construct: recombinantly expressed as GST-tagged full-length protein purified from E. coli; GST; purchased Invitrogen PV3311; host or cells: E. coli
In words: LanthaScreen TR-FRET enzymatic assay, ERK2. The settings on record: IC50 values of ERK2 biochemical activity; 5 μM ATP, 400 nM ATF2-GFP substrate. The gist of the method:
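GST-tagged full-length ERK2 from E. coli, activated with MAP2K1, was used at 20 ng/ml with 400 nM GFP-ATF2(19-96) and 5 μM ATP (near Km). Compound was pre-incubated 15 min, and the reaction ran 1 h at room temperature. pThr71 was detected by Tb-antibody TR-FRET ratio, with IC50 from sigmoid fitting against 1% DMSO.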

T1 sequence (P28482 whole entry): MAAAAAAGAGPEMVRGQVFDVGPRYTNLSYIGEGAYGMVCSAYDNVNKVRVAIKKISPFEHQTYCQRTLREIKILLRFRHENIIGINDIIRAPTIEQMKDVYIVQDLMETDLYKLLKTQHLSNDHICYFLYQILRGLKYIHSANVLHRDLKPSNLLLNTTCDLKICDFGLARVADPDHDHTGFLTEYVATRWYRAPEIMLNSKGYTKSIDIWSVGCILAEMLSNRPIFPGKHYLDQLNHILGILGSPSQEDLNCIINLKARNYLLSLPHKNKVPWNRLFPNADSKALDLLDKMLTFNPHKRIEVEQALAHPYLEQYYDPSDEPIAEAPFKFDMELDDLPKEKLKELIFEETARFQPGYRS

In the case of `CC(C)Oc1ccc(-c2n[nH]c3ccc(-c4ccn([C@H](CO)c5cccc(C(F)(F)F)c5)c(=O)c4)cc23)cn1` [Example 43, (S)-1-(2-hydroxy-1-(3-(trifluoromethyl)phenyl)ethyl)-4-(3-(6-isopropoxypyridin-3-yl)-1H-indazol-5-yl)pyridin-2(1H)-one], the IC50 in the assay with Colo205 cell line is 1000 to 5000 nM; against human ERK2, below 10 nM.
On the same counts, the results for `O=c1cc(-c2ccc3[nH]nc(-c4ccc5ncsc5c4)c3c2)ccn1[C@H](CO)c1cc(F)cc(Br)c1` [Example 114, (S)-4-(3-(benzo[d]thiazol-6-yl)-1H-indazol-5-yl)-1-(1-(3-bromo-5-fluorophenyl)-2-hydroxyethyl)pyridin-2(1H)-one] are at most 500 nM and below 10 nM.
On to `CC(=O)Nc1c(F)cccc1Cn1ccc(-c2ccc3[nH]nc(-c4ccnc(C)c4)c3c2)cc1=O` [Example 88, N-(2-fluoro-6-((4-(3-(2-methylpyridin-4-yl)-1H-indazol-5-yl)-2-oxopyridin-1(2H)-yl)methyl)phenyl)acetamide], for which the half-inhibitory concentration (IC50) in the assay on Colo205 cell line is 1000 to 5000 nM; against human ERK2, below 10 nM.
On the same counts, the results for `CC(c1cc(F)cc(Br)c1)n1ccc(-c2ccc3[nH]nc(-c4cnn(C)c4)c3c2)cc1=O` (stereo not drawn) [Example 96, 1-(1-(3-bromo-5-fluorophenyl)ethyl)-4-(3-(1-methyl-1H-pyrazol-4-yl)-1H-indazol-5-yl)pyridin-2(1H)-one] are 500 to 1000 nM and below 10 nM.
Turning to `Cc1cc(-c2n[nH]c3cc(F)c(-c4ccn([C@H](CO)c5cccc(Cl)c5)c(=O)c4)cc23)ccn1` [Example 14, (S)-1-(1-(3-chlorophenyl)-2-hydroxyethyl)-4-(6-fluoro-3-(2-methylpyridin-4-yl)-1H-indazol-5-yl)pyridin-2(1H)-one], the IC50 with Colo205 cell line was 1000 to 5000 nM; at human ERK2, 10 to 50 nM.
In the same order, the values of `Cc1cc(-c2n[nH]c3ccc(-c4ccn([C@H](CO)c5ccc(F)c(Br)c5)c(=O)c4)cc23)ccn1` [Example 36, (S)-1-(1-(3-bromo-4-fluorophenyl)-2-hydroxyethyl)-4-(3-(2-methylpyridin-4-yl)-1H-indazol-5-yl)pyridin-2(1H)-one] are at most 500 nM and below 10 nM.
Take `Cc1cc(-c2n[nH]c3ccc(-c4ccn(Cc5ccc(F)c(Cl)c5)c(=O)c4)cc23)ccn1` [Example 65, 1-(3-chloro-4-fluorobenzyl)-4-(3-(2-methylpyridin-4-yl)-1H-indazol-5-yl)pyridin-2(1H)-one]: the IC50 in the assay on Colo205 cell line was 500 to 1000 nM; on human ERK2, below 10 nM.
On the same counts, the results for `Cc1cc(-c2n[nH]c3ccc(-c4ccn([C@H](CO)c5cccc(Br)c5)c(=O)c4)cc23)ccn1` [Example 6, (S)-1-(1-(3-bromophenyl)-2-hydroxyethyl)-4-(3-(2-methyl-pyridin-4-yl)-1H-indazol-5-yl)pyridin-2(1H)-one] are at most 500 nM and below 10 nM.
On the same counts, the results for `Cc1cc(-c2n[nH]c3ccc(-c4ccn([C@H](CO)c5cccc(Cl)c5)c(=O)c4)c(F)c23)ccn1` [Example 13, (S)-1-(1-(3-chlorophenyl)-2-hydroxyethyl)-4-(4-fluoro-3-(2-methylpyridin-4-yl)-1H-indazol-5-yl)pyridin-2(1H)-one] are 500 to 1000 nM and below 10 nM.
For the compound `CCOc1cc(-c2n[nH]c3ccc(-c4ccn([C@H](CO)c5cc(F)cc(Br)c5)c(=O)c4)cc23)ccn1` [Example 119, (S)-1-(1-(3-bromo-5-fluorophenyl)-2-hydroxyethyl)-4-(3-(2-ethoxypyridin-4-yl)-1H-indazol-5-yl)pyridin-2(1H)-one], the IC50 was at most 500 nM in the assay on Colo205 cell line and below 10 nM against human ERK2.
In the same order, the values of `Cc1cc(-c2n[nH]c3ccc(-c4ccn(Cc5cc(F)cc(Br)c5)c(=O)c4)cc23)ccn1` [Example 8, 1-(3-bromo-5-fluorobenzyl)-4-(3-(2-methylpyridin-4-yl)-1H-indazol-5-yl)pyridin-2(1H)-one] are 500 to 1000 nM and below 10 nM.
As to `Cc1cc(-c2n[nH]c3ncc(-c4ccn(Cc5ccnc(C(F)(F)F)c5)c(=O)c4)cc23)ccn1` [Example 104, 4-(3-(2-methylpyridin-4-yl)-1H-pyrazolo[3,4-b]pyridin-5-yl)-1-((2-(trifluoromethyl)pyridin-4-yl)methyl)pyridin-2(1H)-one], the IC50 lay within 500 to 1000 nM in the assay with Colo205 cell line and 10 to 50 nM at human ERK2.
Turning to `Cc1cc(-c2n[nH]c3ccc(-c4ccn([C@H](CO)c5cc(F)cc(Br)c5)c(=O)c4)cc23)ccn1` [Example 26, (S)-1-(1-(3-bromo-5-fluorophenyl)-2-hydroxyethyl)-4-(3-(2-methylpyridin-4-yl)-1H-indazol-5-yl)pyridin-2(1H)-one], the IC50 with Colo205 cell line was at most 500 nM; on human ERK2, below 10 nM.
On to `Cc1cc(-c2n[nH]c3ccc(-c4ccn(Cc5cc(Cl)ccc5F)c(=O)c4)cc23)ccn1` [Example 66], for which the values for the IC50 in the assay with Colo205 cell line and on human ERK2 were 500 to 1000 nM and below 10 nM, respectively.
On the same counts, the results for `O=c1cc(-c2ccc3[nH]nc(-c4cnn(C5CC5)c4)c3c2)ccn1[C@H](CO)c1ccc(F)c(Cl)c1` [Example 50, (S)-1-(1-(3-chloro-4-fluorophenyl)-2-hydroxyethyl)-4-(3-(1-cyclopropyl-1H-pyrazol-4-yl)-1H-indazol-5-yl)pyridin-2(1H)-one] are 500 to 1000 nM and below 10 nM.
With `Cn1cc(-c2n[nH]c3ccc(-c4ccn([C@H](CO)c5ccc(Cl)c(F)c5)c(=O)c4)cc23)cn1` [Example 38, (S)-1-(1-(4-chloro-3-fluorophenyl)-2-hydroxyethyl)-4-(3-(1-methyl-1H-pyrazol-4-yl)-1H-indazol-5-yl)pyridin-2(1H)-one], the IC50 is 500 to 1000 nM with Colo205 cell line and below 10 nM at human ERK2.
In the same order, the values of `COc1ccc(-c2n[nH]c3cnc(-c4ccn([C@H](CO)c5cc(F)cc(Br)c5)c(=O)c4)cc23)cn1` [Example 124, (S)-1-(1-(3-bromo-5-fluorophenyl)-2-hydroxyethyl)-4-(3-(6-methoxypyridin-3-yl)-1H-pyrazolo[3,4-c]pyridin-5-yl)pyridin-2(1H)-one] are 500 to 1000 nM and below 10 nM.
In the case of `Cc1cc(-c2n[nH]c3ccc(-c4ccn(Cc5ccc(F)c(F)c5)c(=O)c4)cc23)ccn1` [Example 61, 1-(3,4-difluorobenzyl)-4-(3-(2-methylpyridin-4-yl)-1H-indazol-5-yl)pyridin-2(1H)-one], the IC50 in the assay on Colo205 cell line was 500 to 1000 nM; on human ERK2 it was below 10 nM.
In the case of `Cc1cc(-c2n[nH]c3ccc(-c4ccn(Cc5cccc(F)c5)c(=O)c4)cc23)ccn1` [Example 68, 1-(3-fluorobenzyl)-4-(3-(2-methylpyridin-4-yl)-1H-indazol-5-yl)pyridin-2(1H)-one], the values for the IC50 in the assay with Colo205 cell line and against human ERK2 were 1000 to 5000 nM and below 10 nM, respectively.
Turning to `CC(c1cc(F)cc(Br)c1)n1ccc(-c2ccc3[nH]nc([C@H]4CC[C@H](O)CC4)c3c2)cc1=O` (stereo partly drawn) [Example 140, 1-(1-(3-bromo-5-fluorophenyl)ethyl)-4-(3-((1r,4r)-4-hydroxycyclohexyl)-1H-indazol-5-yl)pyridin-2(1H)-one], the IC50 was 1000 to 5000 nM in the assay on Colo205 cell line and below 10 nM at human ERK2.
Regarding `CC(C)(O)c1ccc(-c2n[nH]c3ccc(-c4ccn([C@H](CO)c5ccc(F)c(Cl)c5)c(=O)c4)cc23)cn1` [Example 20, (S)-1-(1-(3-chloro-4-fluorophenyl)-2-hydroxyethyl)-4-(3-(6-(2-hydroxypropan-2-yl)pyridin-3-yl)-1H-indazol-5-yl)pyridin-2(1H)-one], the IC50 in the assay with Colo205 cell line was in the range of 1000 to 5000 nM; against human ERK2, 10 to 50 nM.
In the same order, the values of `Cc1cc(-c2n[nH]c3ccc(-c4cc(C)n(Cc5ccnc(C(F)(F)F)c5)c(=O)c4)cc23)ccn1` [Example 143, 6-methyl-4-(3-(2-methylpyridin-4-yl)-1H-indazol-5-yl)-1-((2-(trifluoromethyl)pyridin-4-yl)methyl)pyridin-2(1H)-one] are 500 to 1000 nM and below 10 nM.
On the same counts, the results for `Cc1cc(-c2n[nH]c3ccc(-c4ccn([C@H](CO)c5cc(F)cc(C(F)(F)F)c5)c(=O)c4)cc23)ccn1` [Example 33, (S)-1-(1-(3-fluoro-5-(trifluoromethyl)phenyl)-2-hydroxyethyl)-4-(3-(2-methylpyridin-4-yl)-1H-indazol-5-yl)pyridin-2(1H)-one] are at most 500 nM and below 10 nM.
Take `Cn1ccc(-c2n[nH]c3ccc(-c4ccn([C@H](CO)c5cc(F)cc(Br)c5)c(=O)c4)cc23)cc1=O` [Example 121, (S)-1-(1-(3-bromo-5-fluorophenyl)-2-hydroxyethyl)-4-(3-(1-methyl-2-oxo-1,2-dihydropyridin-4-yl)-1H-indazol-5-yl)pyridin-2(1H)-one]: the IC50 is 1000 to 5000 nM in the assay on Colo205 cell line and below 10 nM against human ERK2.
In the same order, the values of `Cn1cc(-c2n[nH]c3ccc(-c4ccn(Cc5cc(F)cc(C(F)(F)F)c5)c(=O)c4)cc23)cn1` [Example 92, 1-(3-fluoro-5-(trifluoromethyl)benzyl)-4-(3-(1-methyl-1H-pyrazol-4-yl)-1H-indazol-5-yl)pyridin-2(1H)-one] are at most 500 nM and below 10 nM.
Regarding `C[C@H](c1cc(F)cc(Br)c1)n1ccc(-c2ccc3[nH]nc(-c4cnn(C)c4)c3c2)cc1=O` (single isomer, unassigned) [Example 96B], the results for the concentration for half-maximal inhibition (IC50) in the assay with Colo205 cell line and against human ERK2 were at most 500 nM and below 10 nM, respectively.
In the same order, the values of `Cc1cc(-c2n[nH]c3ccc(-c4ccn(Cc5cccc(C(F)(F)F)c5)c(=O)c4)cc23)ccn1` [Example 70, 4-(3-(2-methylpyridin-4-yl)-1H-indazol-5-yl)-1-(3-(trifluoromethyl)benzyl)pyridin-2(1H)-one] are 500 to 1000 nM and below 10 nM.
